Source: US20240174718A1, “RYANODINE RECEPTOR INHIBITOR COMPOUNDS AND METHODS RELATING THERETO” (Vanderbilt University, priority 2022, published 2024)
Where two headings read alike, the source gives them in different places.

How the values were obtained:
[1] = system: mammalian cardiac ryanodine receptor (RyR2); details: cited from earlier work
[2] = cited from earlier work
Casq2-/- mice = details: cited from earlier work
RyR2 [3] = target: T1, RyR2 (Sus scrofa, UniProt A0A5G2R1W3); details: read-out: IC50, ryanodine binding assay (ent-1 comparison); cited from earlier work
T1 construct: isolated SR vesicles derived from porcine cardiac muscle; from tissue; host or cells: porcine heart (cardiac sarcoplasmic reticulum vesicles)

RyR2 [4] = target: T2, RyR2 (Mus musculus, UniProt E9Q401); experiment: Calcium spark frequency in permeabilized Casq2 knockout cardiomyocytes (screen for RyR2 activity); assay type: cell-based
T2 construct: spontaneous openings of intracellular RyR2 Ca^2+ release channels; endogenous in cells; host or cells: ventricular cardiomyocytes isolated from Casq2-/- mice (saponin-permeabilized in A1, intact in A7)
T2 sequence (E9Q401 whole entry): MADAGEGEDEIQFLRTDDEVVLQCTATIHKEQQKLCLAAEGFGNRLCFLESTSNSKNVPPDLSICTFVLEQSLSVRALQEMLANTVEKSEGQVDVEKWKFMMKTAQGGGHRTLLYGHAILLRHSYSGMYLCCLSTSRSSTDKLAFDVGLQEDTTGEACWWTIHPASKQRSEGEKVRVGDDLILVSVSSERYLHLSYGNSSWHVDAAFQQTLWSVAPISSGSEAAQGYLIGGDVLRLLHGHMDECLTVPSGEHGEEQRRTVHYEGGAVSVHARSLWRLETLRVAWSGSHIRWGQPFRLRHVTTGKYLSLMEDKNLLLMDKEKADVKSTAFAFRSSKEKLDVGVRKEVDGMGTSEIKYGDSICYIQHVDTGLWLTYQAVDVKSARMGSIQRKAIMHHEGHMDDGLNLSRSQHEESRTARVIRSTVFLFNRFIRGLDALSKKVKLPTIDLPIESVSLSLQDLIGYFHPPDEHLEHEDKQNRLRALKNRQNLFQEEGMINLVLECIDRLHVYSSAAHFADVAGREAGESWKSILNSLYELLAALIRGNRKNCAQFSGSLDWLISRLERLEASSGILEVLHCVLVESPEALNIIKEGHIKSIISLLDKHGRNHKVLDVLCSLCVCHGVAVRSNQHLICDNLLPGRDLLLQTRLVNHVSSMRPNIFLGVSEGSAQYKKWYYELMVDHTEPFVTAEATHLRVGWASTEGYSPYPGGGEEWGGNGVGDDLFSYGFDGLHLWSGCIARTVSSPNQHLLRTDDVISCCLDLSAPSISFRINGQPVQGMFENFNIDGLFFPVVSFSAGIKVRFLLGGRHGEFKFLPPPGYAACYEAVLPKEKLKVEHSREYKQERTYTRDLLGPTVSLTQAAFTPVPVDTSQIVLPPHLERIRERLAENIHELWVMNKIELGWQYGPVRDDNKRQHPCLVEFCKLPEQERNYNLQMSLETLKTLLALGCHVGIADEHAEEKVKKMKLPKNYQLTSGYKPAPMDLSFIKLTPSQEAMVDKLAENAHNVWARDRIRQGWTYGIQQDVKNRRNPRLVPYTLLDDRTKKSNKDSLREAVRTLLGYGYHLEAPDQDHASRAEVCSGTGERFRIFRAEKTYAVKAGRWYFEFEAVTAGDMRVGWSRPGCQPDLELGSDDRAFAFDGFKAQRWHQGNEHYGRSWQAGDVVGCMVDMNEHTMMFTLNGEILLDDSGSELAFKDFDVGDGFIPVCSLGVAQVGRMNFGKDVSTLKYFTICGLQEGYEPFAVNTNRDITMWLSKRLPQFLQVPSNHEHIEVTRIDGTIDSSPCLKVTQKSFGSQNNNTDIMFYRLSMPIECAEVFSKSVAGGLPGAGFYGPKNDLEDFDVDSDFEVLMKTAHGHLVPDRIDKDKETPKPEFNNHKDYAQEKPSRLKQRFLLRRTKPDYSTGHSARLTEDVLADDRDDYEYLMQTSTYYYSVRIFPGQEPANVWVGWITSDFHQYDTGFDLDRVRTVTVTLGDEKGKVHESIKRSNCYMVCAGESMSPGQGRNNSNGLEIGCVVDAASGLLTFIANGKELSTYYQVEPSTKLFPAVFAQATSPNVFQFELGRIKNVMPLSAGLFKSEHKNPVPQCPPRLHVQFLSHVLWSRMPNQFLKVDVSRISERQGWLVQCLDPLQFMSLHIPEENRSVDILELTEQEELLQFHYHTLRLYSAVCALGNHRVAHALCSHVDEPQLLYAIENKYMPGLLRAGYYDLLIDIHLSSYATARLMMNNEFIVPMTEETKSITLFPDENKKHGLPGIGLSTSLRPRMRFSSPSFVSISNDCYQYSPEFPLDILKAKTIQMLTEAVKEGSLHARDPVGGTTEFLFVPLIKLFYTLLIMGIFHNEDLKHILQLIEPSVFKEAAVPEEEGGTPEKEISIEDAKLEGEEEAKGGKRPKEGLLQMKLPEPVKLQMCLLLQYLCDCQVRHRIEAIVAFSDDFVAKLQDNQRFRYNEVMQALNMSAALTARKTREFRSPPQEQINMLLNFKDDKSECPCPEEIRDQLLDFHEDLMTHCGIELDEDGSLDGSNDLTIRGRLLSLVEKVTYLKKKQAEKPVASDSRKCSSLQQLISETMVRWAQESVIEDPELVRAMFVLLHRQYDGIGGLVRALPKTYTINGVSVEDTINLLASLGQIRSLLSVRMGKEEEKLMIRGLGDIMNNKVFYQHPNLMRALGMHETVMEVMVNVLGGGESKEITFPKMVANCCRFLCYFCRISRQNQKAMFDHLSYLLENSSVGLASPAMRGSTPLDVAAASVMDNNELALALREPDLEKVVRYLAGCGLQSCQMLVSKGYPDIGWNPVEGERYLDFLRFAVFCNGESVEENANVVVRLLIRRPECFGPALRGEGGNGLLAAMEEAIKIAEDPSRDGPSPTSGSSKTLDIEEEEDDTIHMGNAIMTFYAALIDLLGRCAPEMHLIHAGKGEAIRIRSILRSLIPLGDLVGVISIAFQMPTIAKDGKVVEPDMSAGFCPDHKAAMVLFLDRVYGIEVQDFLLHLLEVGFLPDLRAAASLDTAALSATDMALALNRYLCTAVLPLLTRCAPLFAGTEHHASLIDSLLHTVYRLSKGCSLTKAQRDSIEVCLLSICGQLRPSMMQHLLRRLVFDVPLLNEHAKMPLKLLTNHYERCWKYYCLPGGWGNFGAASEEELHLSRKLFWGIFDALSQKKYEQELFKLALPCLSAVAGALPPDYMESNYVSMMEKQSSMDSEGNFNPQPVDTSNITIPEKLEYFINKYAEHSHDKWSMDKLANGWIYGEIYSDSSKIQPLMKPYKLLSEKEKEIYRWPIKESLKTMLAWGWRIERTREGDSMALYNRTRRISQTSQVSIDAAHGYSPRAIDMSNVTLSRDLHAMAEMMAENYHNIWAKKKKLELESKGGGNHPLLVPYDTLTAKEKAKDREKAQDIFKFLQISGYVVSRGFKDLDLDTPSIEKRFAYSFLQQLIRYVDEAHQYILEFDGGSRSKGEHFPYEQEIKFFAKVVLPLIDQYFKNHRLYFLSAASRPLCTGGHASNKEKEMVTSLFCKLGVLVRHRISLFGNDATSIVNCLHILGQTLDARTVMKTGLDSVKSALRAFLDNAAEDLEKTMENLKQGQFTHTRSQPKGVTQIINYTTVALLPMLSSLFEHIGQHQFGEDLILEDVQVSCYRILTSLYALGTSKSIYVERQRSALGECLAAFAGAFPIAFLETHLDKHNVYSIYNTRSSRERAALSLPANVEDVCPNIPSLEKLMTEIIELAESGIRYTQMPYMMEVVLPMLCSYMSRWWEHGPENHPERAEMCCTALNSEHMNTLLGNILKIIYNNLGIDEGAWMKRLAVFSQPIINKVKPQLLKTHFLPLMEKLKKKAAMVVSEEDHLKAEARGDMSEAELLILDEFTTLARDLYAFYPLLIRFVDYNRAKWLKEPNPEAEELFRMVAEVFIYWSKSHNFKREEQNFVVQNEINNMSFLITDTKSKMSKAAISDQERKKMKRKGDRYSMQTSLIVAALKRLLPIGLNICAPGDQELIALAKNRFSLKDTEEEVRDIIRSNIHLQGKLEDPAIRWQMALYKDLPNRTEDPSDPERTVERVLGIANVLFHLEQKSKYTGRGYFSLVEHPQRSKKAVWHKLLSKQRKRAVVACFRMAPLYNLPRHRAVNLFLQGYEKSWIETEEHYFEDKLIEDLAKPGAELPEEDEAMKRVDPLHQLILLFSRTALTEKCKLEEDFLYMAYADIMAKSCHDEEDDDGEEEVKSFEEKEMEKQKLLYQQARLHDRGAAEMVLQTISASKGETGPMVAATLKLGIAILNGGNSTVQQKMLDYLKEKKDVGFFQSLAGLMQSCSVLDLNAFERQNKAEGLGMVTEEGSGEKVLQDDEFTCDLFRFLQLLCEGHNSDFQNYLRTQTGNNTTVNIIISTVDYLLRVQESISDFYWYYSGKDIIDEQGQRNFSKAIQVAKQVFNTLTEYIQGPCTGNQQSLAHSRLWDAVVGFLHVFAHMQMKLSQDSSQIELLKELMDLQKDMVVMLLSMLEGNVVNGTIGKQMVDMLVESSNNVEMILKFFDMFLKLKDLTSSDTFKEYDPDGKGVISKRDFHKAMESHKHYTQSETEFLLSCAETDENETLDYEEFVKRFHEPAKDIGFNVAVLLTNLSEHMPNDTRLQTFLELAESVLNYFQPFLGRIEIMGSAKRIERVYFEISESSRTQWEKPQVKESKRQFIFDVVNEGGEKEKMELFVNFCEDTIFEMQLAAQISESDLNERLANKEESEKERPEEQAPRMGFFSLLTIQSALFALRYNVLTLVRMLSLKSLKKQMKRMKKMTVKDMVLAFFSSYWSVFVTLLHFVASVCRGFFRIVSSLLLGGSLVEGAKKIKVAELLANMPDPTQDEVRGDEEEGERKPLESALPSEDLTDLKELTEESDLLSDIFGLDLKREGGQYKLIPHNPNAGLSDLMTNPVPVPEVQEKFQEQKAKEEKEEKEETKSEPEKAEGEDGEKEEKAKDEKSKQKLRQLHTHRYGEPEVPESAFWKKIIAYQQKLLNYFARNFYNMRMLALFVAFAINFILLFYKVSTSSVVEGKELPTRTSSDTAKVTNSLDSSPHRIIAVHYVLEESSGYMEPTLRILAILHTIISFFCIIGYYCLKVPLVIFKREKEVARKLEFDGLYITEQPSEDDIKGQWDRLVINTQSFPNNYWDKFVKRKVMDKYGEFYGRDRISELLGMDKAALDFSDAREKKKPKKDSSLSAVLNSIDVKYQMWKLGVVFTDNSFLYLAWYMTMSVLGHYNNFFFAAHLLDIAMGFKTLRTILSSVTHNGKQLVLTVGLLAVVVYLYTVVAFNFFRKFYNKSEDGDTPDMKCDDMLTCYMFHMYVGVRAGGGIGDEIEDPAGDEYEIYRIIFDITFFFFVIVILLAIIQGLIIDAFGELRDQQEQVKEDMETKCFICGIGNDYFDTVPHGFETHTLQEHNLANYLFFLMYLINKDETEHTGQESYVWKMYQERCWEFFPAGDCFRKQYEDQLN
Procedure: FIGS. 3(A)-3(E) show a biological screen for cardiac ryanodine receptor (RyR2) activity. Note that ‘ent-24’=9, and ‘ent-18’ refers to structure 8 in FIG. 1, which is also the enantiomer of a natural product. (3A) Calcium spark frequency in permeabilized murine cardiomyocytes was recorded as an index of RyR2 activity. Compounds were screened at 25 uM concentration after 10-minute incubation. *=p<0.001 by one-way ANOVA with Tukey's post-hoc test. (3B) Incubation time was extended to 60 minutes for the 12- and 30-membered rings. (3C) The seco-acid precursors to 12- and 18-membered rings were tested at 25 uM. (3D) Concentration response curve for the 18-membered ring and (3E) 24-membered ring. Cells were incubated for 30 minutes
Activity of Ring-Size Analogues. […] Ventricular cardiomyocytes were isolated, permeabilized with saponin, and incubated with vehicle (DMSO) or 25 μM of selected compound. RyR2 activity was measured in the form of calcium sparks, which are elementary Ca^2+ release events generated by spontaneous openings of intracellular RyR2 Ca^2+ release channels. Importantly, saponin selectively permeabilizes the sarcolemmal membrane, leaving the SR membrane intact and ensuring equivalent access of the compounds to the SR membrane where RyR2 resides.
The compounds were first screened by incubating cardiomyocytes for 10 minutes at 25 μM concentration and compared to vehicle (DMSO) conditions.

RyR2 [5] = target: T2, RyR2; details: read-out: IC50, intact cardiomyocyte assay (ent-1 comparison); cited from earlier work

Substance	RyR2-mediated spontaneous calcium release [1]	potency of inhibition of mammalian cardiac ryanodine receptor calcium release channels [1]	half-life of ent-1 ([2]; 3 mg/kg dose)	half-life of ent-1 ([2]; 30 mg/kg dose)	t1/2 of ent-1 ([2]; mice)	reduction in ventricular ectopy burden (ent-1) (Casq2-/- mice; 30 mg/kg, same arrhythmia induction protocol)	antiarrhythmic efficacy in vivo (ent-1) (Casq2-/- mice; single dose study, 3 and 30 mg/kg i.p., Casq2-/- mice)	IC50 (RyR2 [3])	RyR2-mediated Ca2+ spark frequency (RyR2 [4]; 25 μM, 10 minutes incubation, vs vehicle (DMSO))	IC50 (RyR2 [5])	activity in the calcium spark assay (summary statement) (RyR2 [4])
(+)-ent-verticilide [ent-1]	significantly reduced	sub-micromolar potency	6.9 h	6.4 h	6.92 h	70%	antiarrhythmic efficacy	100 nM	significantly inhibited	90 nM	
(−)-nat-verticilide [reference compound]	no effect										none of these were active
